Patent US5869527A, “6-(N-carboxymethylamino)caproate, salts thereof and methods of use therefor” (Alteon Inc., priority 1996, dated 1999)

Experiments:
monoclonal antibody 2G6 = assay: Competition ELISA, inhibition of mAb 2G6 binding; parameters: species or system mouse
Method: (§1) The ability of monoclonal antibodies, mAb 4G9, mAb BH4 and mAb 2G6, raised against KLH non-enzymatically glycated by prolonged incubation with glucose (KLH-AGE), to recognize the disodium 6-(N-carboxymethylamino)caproate was determined.
(§2) Direct ELISA and competition ELISA. For direct ELISA, 6- (N-carboxymethylamino)caproate was coated on microtiter plates, the unbound sites were blocked by incubation with Assay Buffer (25 mM borate, pH 8.0, 150 mM NaCl, 0.01% EDTA and 1% BSA). The plate was washed six times and increasing concentrations of mAb in Assay Buffer were added. […] The unbound antibodies were removed by extensive washing and the bound antibodies were detected by addition of p-nitrophenylphosphate in recording the optical density at 410 nm.
(§3) The competition ELISA was performed by pre-coating microtiter plates with disodium 6-(N-carboxymethylamino)caproate and blocking with Assay Buffer. […] The unbound materials were removed by extensive washing and the bound mAb was detected with alkaline phosphatase labeled anti-mouse antibodies similar to direct ELISA. […]
(§4) Competitive ELISA: Plates coated with BSA-AGE at 10 μg/ml. […] In the case of isothiocyanate the plates are soaked for 15 minutes with varying concentrations of isothiocyanate and the level of binding then measured.

monoclonal antibody 4G9 = assay: Competition ELISA, inhibition of mAb 4G9 binding; parameters: species or system mouse
Method: as §1, §2, §3, §4

monoclonal antibody BH4 = assay: Competition ELISA, inhibition of mAb BH4 binding; parameters: species or system mouse
Method: as §1, §2, §3, §4

[1] = test system: antibodies to advanced glycosylation endproducts; assay: Recognition of compounds by monoclonal antibodies to advanced glycosylation endproducts (direct/competition ELISA); type: binding; conditions: qualitative
Method: as §1
Direct ELISA and competition ELISA. For direct ELISA, 6- (N-carboxymethylamino)caproate was coated on microtiter plates, the unbound sites were blocked by incubation with Assay Buffer (25 mM borate, pH 8.0, 150 mM NaCl, 0.01% EDTA and 1% BSA). The plate was washed six times and increasing concentrations of mAb in Assay Buffer were added. After this incubation, the plate was again washed and incubated with alkaline-phosphatase labeled goat anti-mouse antibodies (Cappel, Durham, N.C.) diluted 1:1000 in Assay Buffer. The unbound antibodies were removed by extensive washing and the bound antibodies were detected by addition of p-nitrophenylphosphate in recording the optical density at 410 nm.
as §3

Hb-AGE = conditions: diabetic patients treated for 28 days; WO 93/13421; cited from earlier work
[2] = test system: advanced glycosylation endproducts; conditions: U.S. Pat. No. 4,758,583; cited from earlier work
[3] = Competitive ELISA, plates coated with BSA-AGE at 10 μg/ml

SMILES	Concentration of Antigen for 50% Inhibition of mAb 2G6 (monoclonal antibody 2G6; [3]) [pmol/well]	recognition by monoclonal antibody 2G6 (monoclonal antibody 2G6; qualitative, ELISA)	Concentration of Antigen for 50% Inhibition of mAb 4G9 (monoclonal antibody 4G9; [3]) [pmol/well]	recognition by monoclonal antibody 4G9 (monoclonal antibody 4G9; qualitative, ELISA)	Concentration of Antigen for 50% Inhibition of mAb BH4 (monoclonal antibody BH4; [3]) [pmol/well]	recognition by monoclonal antibody BH4 (monoclonal antibody BH4; qualitative, ELISA)	recognition by antibodies which recognize advanced glycosylation endproducts [1]	levels of Hb-AGE at the end of the treatment period (Hb-AGE)	inhibition of formation of advanced glycosylation endproducts [2]
O=C(O)CCCCCNCC(=O)O [ALT-927, disodium 6-(N-carboxymethylamino)caproate]	21	displayed recognition	11	displayed recognition	5.7	displayed recognition	have been shown to recognize	–	–
N=C(N)NN [aminoguanidine]	–	–	–	–	–	–	–	significantly decreased levels of Hb-AGE	identified as an inhibitor
